Source: ChEMBL document CHEMBL5321280, “Novel 4-Arylindolines Containing a Pyrido[3,2-d]pyrimidine Moiety as the Programmed Cell Death-1/Programmed Cell Death-Ligand 1 Interaction Inhibitors for Tumor Immunotherapy” (J Med Chem, 2023)
The source made the active and inactive calls. No cut-off for these calls is given here.

How the values were obtained:
[1] = molecular target: Programmed cell death protein 1/Programmed cell death 1 ligand 1 (Homo sapiens, UniProt Q15116+Q9NZQ7); test: Inhibition of PD-1/PD-L1 (unknown origin) protein-protein interaction incubated for 105 mins by HTRF assay; type: protein-complex assay
T-cell [2] = test: Immunomodulatory activity in concanavalin A stimulated BALB/c mouse T-lymphocyte co-cultured with mouse CT26 cells assessed as T cell proliferation at 20 nM incubated for 48 hrs by flow cytometry (reference value: 64.08 +/- 0.91%); type: functional
T-cell [3] = test: Immunomodulatory activity in concanavalin A stimulated BALB/c mouse T-lymphocyte co-cultured with mouse CT26 cells assessed as increase in T cell proliferation at 5 to 80 nM incubated for 48 hrs by flow cytometry; type: functional, cell-based; details: dose 5-80 nM
T-cell [4] = test: Immunomodulatory activity in concanavalin A stimulated BALB/c mouse T-lymphocyte co-cultured with mouse CT26 cells overexpressing PD-L1 assessed as T cell proliferation at 20 nM incubated for 48 hrs by flow cytometry (reference value: 58.47 +/- 2.07%); type: functional
T-cell [5] = test: Immunomodulatory activity in concanavalin A stimulated BALB/c mouse T-lymphocyte co-cultured with mouse CT26 cells overexpressing PD-L1 assessed as increase in T cell proliferation at 5 to 80 nM incubated for 48 hrs by flow cytometry; type: functional, cell-based; details: dose 5-80 nM
[6] = Metabolic stability in human liver microsomes assessed as half life; type: ADME, Microsome

Sequence of Programmed cell death protein 1/Programmed cell death 1 ligand 1 (Q15116 whole entry): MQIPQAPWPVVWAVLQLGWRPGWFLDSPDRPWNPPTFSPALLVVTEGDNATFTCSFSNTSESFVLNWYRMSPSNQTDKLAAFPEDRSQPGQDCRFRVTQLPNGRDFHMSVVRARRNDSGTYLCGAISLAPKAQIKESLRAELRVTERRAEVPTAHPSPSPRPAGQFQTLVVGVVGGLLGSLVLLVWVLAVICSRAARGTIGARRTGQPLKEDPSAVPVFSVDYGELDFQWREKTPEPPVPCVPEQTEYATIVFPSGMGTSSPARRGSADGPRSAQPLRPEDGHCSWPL
Sequence of Programmed cell death protein 1/Programmed cell death 1 ligand 1 (Q9NZQ7 whole entry): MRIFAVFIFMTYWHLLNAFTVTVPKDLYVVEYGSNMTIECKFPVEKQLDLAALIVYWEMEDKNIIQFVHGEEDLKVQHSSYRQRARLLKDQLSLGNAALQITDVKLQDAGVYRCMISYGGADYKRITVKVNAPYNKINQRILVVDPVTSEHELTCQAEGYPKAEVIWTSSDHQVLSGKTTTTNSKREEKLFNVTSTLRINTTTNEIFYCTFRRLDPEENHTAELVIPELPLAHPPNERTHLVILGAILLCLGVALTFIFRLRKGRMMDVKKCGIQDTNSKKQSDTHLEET

Compound	IC50 [1]	other results
OC[C@H]1CCN(Cc2cnc3c(N4CCc5c(-c6ccccc6)cccc54)ncnc3c2)C1	21.4 nM	–
COCCNCc1cnc2c(N3CCc4c(-c5ccc6c(c5)OCCO6)cccc43)ncnc2c1	15.5 nM	–
O=C(O)[C@@H]1CCCN1Cc1cnc2c(N3CCc4c(-c5ccc6c(c5)OCCO6)cccc43)ncnc2c1	15.8 nM	–
CC(=O)NCCNCc1cnc2c(N3CCc4c(-c5ccc6c(c5)OCCO6)cccc43)ncnc2c1	13.8 nM	–
O=C(O)[C@@H]1CCN(Cc2cnc3c(N4CCc5c(-c6ccccc6)cccc54)ncnc3c2)C1	8.6 nM	Activity (T-cell [2]): 43.98%; Activity (T-cell [3]): Active; Activity (T-cell [4]): 38.74%; Activity (T-cell [5]): Active
O=C(O)[C@H]1CCN(Cc2cnc3c(N4CCc5c(-c6ccccc6)cccc54)nccc3c2)C1	80.5 nM	–
NS(=O)(=O)NCCNCc1cnc2c(N3CCc4c(-c5ccccc5)cccc43)ncnc2c1	21.1 nM	–
O=C(O)[C@@H]1CCCCN1Cc1cnc2c(N3CCc4c(-c5ccccc5)cccc43)ncnc2c1	26.6 nM	–
c1ccc(-c2cccc3c2CCN3c2ncnc3cc(CNC4CCOCC4)cnc23)cc1	21.2 nM	half-life [6]: 1.51 h
OCCNCc1ccc2c(N3CCc4c(-c5ccccc5)cccc43)ncnc2c1	43.4 nM	–
CC(=O)NCCNCc1ccc2c(N3CCc4c(-c5ccccc5)cccc43)ncnc2c1	126 nM	–
O=C(O)[C@@H]1CCCN1Cc1cnc2c(N3CCc4c(-c5ccccc5)cccc43)ncnc2c1	8.1 nM	Activity (T-cell [2]): 64.03%; Activity (T-cell [3]): Active; Activity (T-cell [4]): 61.9%; Activity (T-cell [5]): Active
OCCNCc1cnc2c(N3CCc4c(-c5ccccc5)cccc43)nccc2c1	31.7 nM	–
OCCNCc1cnc2c(N3CCc4c(-c5ccc6c(c5)OCCO6)cccc43)ncnc2c1	7.2 nM	Activity (T-cell [2]): 61.77%; Activity (T-cell [3]): Active; Activity (T-cell [4]): 59.54%; Activity (T-cell [5]): Active
CC(=O)NCCNCc1cnc2c(N3CCc4c(-c5ccccc5)cccc43)nccc2c1	84.5 nM	–
CC(C)(CO)NCc1cnc2c(N3CCc4c(-c5ccc6c(c5)OCCO6)cccc43)ncnc2c1	14.1 nM	–
